Experiments:
Test in all cases: relative viability (nuclei count vs DMSO), 5 days (fraction); higher = more cells survive
[1] = compound: C[C@@H](C(=O)N[C@@H](C1CCCCC1)C(=O)N2CCC[C@H]2C(=O)N[C@@H]3[C@@H](CC4=CC=CC=C34)OCC#CC#CCO[C@@H]5CC6=CC=CC=C6[C@@H]5NC(=O)[C@@H]7CCCN7C(=O)[C@H](C8CCCCC8)NC(=O)[C@H](C)NC)NC [AZD5582] + CC(=O)c1c(C)c2cnc(Nc3ccc(N4CCNCC4)cn3)nc2n(C2CCCC2)c1=O [Palbociclib] (partner 0.5 µM)
In short: (§1)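 Lung cancer cell lines in 1536-well plates got either a single drug or a fixed anchor-drug dose together with five library-drug doses (not always all listed) in √10 steps, by pin tool, on the day after seeding. Nuclei were counted after 5 days, and relative viability is the treated-to-vehicle ratio of nuclei counts. Values are medians of duplicate plates.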

[2] = compound: C[C@@H](C(=O)N[C@@H](C1CCCCC1)C(=O)N2CCC[C@H]2C(=O)N[C@@H]3[C@@H](CC4=CC=CC=C34)OCC#CC#CCO[C@@H]5CC6=CC=CC=C6[C@@H]5NC(=O)[C@@H]7CCCN7C(=O)[C@H](C8CCCCC8)NC(=O)[C@H](C)NC)NC [AZD5582] + CC1(C)CCC(c2ccc(Cl)cc2)=C(CN2CCN(c3ccc(C(=O)NS(=O)(=O)c4ccc(N[C@H](CCN5CCOCC5)CSc5ccccc5)c(S(=O)(=O)C(F)(F)F)c4)cc3)CC2)C1 [Navitoclax] (partner 0.5 µM)
In short: as §1

[3] = compound: Cn1nnc2c(C(N)=O)ncn2c1=O [Temozolomide] + C[C@]1(O)C[C@@H](c2nc(-c3ccc4ccc(-c5ccccc5)nc4c3)c3c(N)nccn32)C1 [Linsitinib] (partner 1 µM)
In short: as §1

[4] = compound: Cn1nnc2c(C(N)=O)ncn2c1=O [Temozolomide] + C[C@@H](Oc1cc(-c2cnn(C3CCNCC3)c2)cnc1N)c1c(Cl)ccc(F)c1Cl [Crizotinib] (partner 1 µM)
In short: as §1

Cell Line | relative viability ([1]; first compound 0.001581 µM) | relative viability ([1]; first compound 0.005 µM) | relative viability ([1]; first compound 0.01581 µM) | relative viability ([1]; first compound 0.05 µM) | relative viability ([2]; first compound 0.001581 µM) | relative viability ([2]; first compound 0.005 µM) | relative viability ([2]; first compound 0.01581 µM) | relative viability ([2]; first compound 0.05 µM) | relative viability ([3]; first compound 0.2 µM) | relative viability ([3]; first compound 0.6325 µM) | relative viability ([3]; first compound 2 µM) | relative viability ([3]; first compound 6.325 µM) | relative viability ([3]; first compound 20 µM) | relative viability ([4]; first compound 0.2 µM) | relative viability ([4]; first compound 0.6325 µM) | relative viability ([4]; first compound 2 µM) | relative viability ([4]; first compound 6.325 µM) | relative viability ([4]; first compound 20 µM)
NCI-H2087 | 0.188 | 0.23 | 0.225 | 0.241 | 1.03 | 0.864 | 1.05 | 1.05 | 1.09 | 0.862 | 1.03 | 0.826 | 0.949 | 0.898 | 0.74 | 0.892 | 0.803 | 0.871
NCI-H2126 | 0.331 | 0.334 | 0.36 | 0.379 | 0.829 | 0.835 | 0.834 | 0.706 | 0.691 | 0.712 | 0.646 | 0.768 | 0.692 | 1.05 | 0.984 | 0.974 | 1.07 | 1.05
NCI-H2228 | 0.674 | 0.706 | 0.84 | 0.127 | 0.904 | 0.851 | 0.837 | 0.555 | 0.794 | 0.705 | 0.693 | 0.636 | 0.822 | 0.529 | 0.536 | 0.466 | 0.399 | 0.369
NCI-H2347 | 0.43 | 0.392 | 0.447 | 0.416 | 0.747 | 0.941 | 0.791 | 0.748 | 1.08 | 1.11 | 1 | 0.859 | 0.964 | 0.695 | 0.712 | 0.715 | 0.651 | 0.645
